Data published in patent US20030166645A1, “Novel nitrofuran-containing heterocyclic compounds and uses thereof” (priority 2001, published 2003).
Converted amounts (≈) assume the structure as drawn. Read-outs that look alike come from different tables or passages of the source.

How the values were obtained:
S cerevisiae = assay: Microdilution antimicrobial susceptibility test (MIC); format: cell-based; conditions: broth microdilution, 18-24 h, MIC = 90% inhibition of growth; for MIC: read-out: MIC S cerevisiae MIC7
M. catarrhalis = assay: as above; format: cell-based; conditions: broth microdilution, 18-24 h, MIC = 90% inhibition of growth; for MIC: Moraxella catarrhalis, read-out: MIC M. catarrhalis MIC2
P aeruginosa = assay: as above; format: cell-based; conditions: broth microdilution, 18-24 h, MIC = 90% inhibition of growth; for MIC: read-out: MIC P aeruginosa MIC2
S aureus = assay: as above; format: cell-based; conditions: broth microdilution, 18-24 h, MIC = 90% inhibition of growth; for MIC: read-out: MIC S aureus MIC2
S pneumoniae = assay: as above; format: cell-based; conditions: broth microdilution, 18-24 h, CO2-enriched atmosphere, MIC = 90% inhibition of growth; for MIC: read-out: MIC S pneumoniae MIC6
H influenzae = assay: as above; format: cell-based; conditions: broth microdilution, 18-24 h, MIC = 90% inhibition of growth; for MIC: read-out: MIC H influenzae MIC4
E coli = assay: as above; format: cell-based; conditions: broth microdilution, 18-24 h, MIC = 90% inhibition of growth; for MIC: read-out: MIC E coli MIC2
E faecalis = assay: as above; format: cell-based; conditions: broth microdilution, 18-24 h, MIC = 90% inhibition of growth; for MIC: read-out: MIC E faecalis MIC2
E coli (ImpA) = assay: as above; format: cell-based; conditions: broth microdilution, 18-24 h, MIC = 90% inhibition of growth
Method: Microdilution Antimicrobial Susceptibility Test Assay
Stock solutions of tested compounds were prepared in N,N-dimethylformamide (DMF) at a concentration of 5 mg/mL. Working solutions of the tested compounds were then prepared from the stock solutions, in Mueller-Hinton broth (MHB) with a starting concentration of 64 μg/mL.
Bacterial inocula were prepared from overnight culture (i.e., one fresh colony from agar plate in 5 ml MHB; H. influenzae was grown in MHB with the addition of yeast extract, haematin, and NAD), centrifuged 2×5 min/3000 rpm (for S. pneumoniae and H. influenzae, 2×10 min/3000 rpm), and dispensed in 5 ml of fresh MHB each time, such that the bacterial suspension is diluted to obtain 100 colony forming units (cfu) in a microplate well (100 μl total volume).
Microplate wells were filled with two-fold dilutions of test compound (50 Al), starting with 64 μg/ml. Wells were then filled with 50 μl of bacterial inoculum (final volume: 100 μl/well). The plates were incubated at 37° C. for 18-24 hours (S. pneumoniae was grown in a CO2-enriched atmosphere).

Bacteroides vulgatus = assay: Antimicrobial agar dilution test of anaerobic bacteria (MIC); format: cell-based; conditions: 48 h
[1] = system: Bacteroides thetaiotaomicron; format: cell-based; conditions: agar dilution, anaerobic, 48 h
Bacteroides fragilis [2] = assay: Antimicrobial agar dilution test of anaerobic bacteria (MIC); format: cell-based; conditions: 48 h
Clostridium perfringens = format: cell-based; conditions: disk 200 μg, anaerobic, 24-48 h
Bacteroides fragilis [3] = format: cell-based
E. coli = assay: Systemic bacterial infection model, mice infected with E. coli
Peptostreptococcus sp = format: cell-based
S. aureus = assay: Systemic bacterial infection model, mice infected with S. aureus

SMILES	MIC S cerevisiae MIC7 (S cerevisiae) [µg/mL]	MIC M. catarrhalis MIC2 (M. catarrhalis) [µg/mL]	MIC P aeruginosa MIC2 (P aeruginosa) [µg/mL]	MIC S aureus MIC2 (S aureus) [µg/mL]	MIC S pneumoniae MIC6 (S pneumoniae) [µg/mL]	MIC H influenzae MIC4 (H influenzae) [µg/mL]	MIC E coli MIC2 (E coli) [µg/mL]	MIC E faecalis MIC2 (E faecalis) [µg/mL]	MIC E coli (ImpA) MIC9 (E coli (ImpA)) [µg/mL]	MIC Bacteroides vulgatus (Bacteroides vulgatus) [µg/mL]	MIC Bacteroides thetaiotaomicron [1] [µg/mL]	MIC Bacteroides fragilis (Bacteroides fragilis [2]; first B. fragilis column) [µg/mL]	MIC Bacteroides fragilis (Bacteroides fragilis [2]; second B. fragilis column) [µg/mL]	MIC Bacteroides fragilis (Bacteroides fragilis [2]; third B. fragilis column) [µg/mL]	further results
O=[N+]([O-])c1ccc(-c2nnc(S(=O)(=O)O)n2-c2ccc(Cl)cc2)o1 [Compound 132]	64 (≈ 173 µM)	4 (≈ 10.8 µM)	>64	32 (≈ 86.3 µM)	32 (≈ 86.3 µM)	8 (≈ 21.6 µM)	>64	>64	16 (≈ 43.2 µM)						
O=[N+]([O-])c1ccc(-c2nnc(S)n2-c2cccc(Cl)c2)o1 [Compound 140]	>64	<0.12	>64	1 (≈ 3.1 µM)	2 (≈ 6.2 µM)	4 (≈ 12.4 µM)	>64	16 (≈ 49.6 µM)	0.5 (≈ 1.55 µM)						
O=[N+]([O-])c1ccc(-c2nnc(S)n2-c2ccc(Oc3ccccc3)cc2)o1 [Compound 143]	>64	<0.12	>64	0.25 (≈ 0.657 µM)	0.5 (≈ 1.31 µM)	>64	>64	1 (≈ 2.63 µM)	<0.12						
C[C@@H](O)[C@H]1C(=O)N2C(C(=O)O)=C(SCCN=CN)C[C@H]12 [Imipenem]										< 0.125	< 0.125	< 0.125	< 0.125	< 0.125	
O=C1CN(/N=C/c2ccc([N+](=O)[O-])o2)C(=O)N1 [Nitrofurantoin, reference compound]										< 0.125	2 (≈ 8.4 µM)	2 (≈ 8.4 µM)	2 (≈ 8.4 µM)	2 (≈ 8.4 µM)	Inhibition zones (Clostridium perfringens; Clostridium perfringens (fresh wound isolate)): 21 mm; Inhibition zones (Clostridium perfringens; Clostridium perfringens, diameter includes disk): >25 mm**; MIC (S cerevisiae): > 64 µg/mL; MIC (M. catarrhalis): 2 µg/mL (≈ 8.4 µM); MIC (P aeruginosa): > 64 µg/mL; Inhibition zones (Bacteroides fragilis [3]): >25 mm**; MIC (S aureus): 16 µg/mL (≈ 67.2 µM); Survival (%) (E. coli; Study #3, 50 mg/kg IP QD × 3, 6 days observation): 0%; Survival (%) (E. coli; Study #3, 75 mg/kg IP QD × 3, 6 days observation): 20%; Survival (%) (E. coli; Study #3, 100 mg/kg IP QD × 3, 6 days observation): 0%; MIC (S pneumoniae): 2 µg/mL (≈ 8.4 µM); MIC (H influenzae): 4 µg/mL (≈ 16.8 µM); MIC (E coli): 8 µg/mL (≈ 33.6 µM); Inhibition zones (Peptostreptococcus sp): 12 mm**; MIC (E faecalis): 4 µg/mL (≈ 16.8 µM); Survival (%) (S. aureus; Study #2, 25 mg/kg IP QD × 3, 6 days observation): 50%; Survival (%) (S. aureus; Study #2, 50 mg/kg IP QD × 3, 6 days observation): 50%
CCN1CCN(C(=O)N[C@@H](C(=O)N[C@@H]2C(=O)N3[C@@H]2SC(C)(C)[C@@H]3C(=O)O)c2ccccc2)C(=O)C1=O [Piperacillin]										128 (≈ 247 µM)	16 (≈ 30.9 µM)	2 (≈ 3.86 µM)	16 (≈ 30.9 µM)	2 (≈ 3.86 µM)	
COc1cc(Cc2cnc(N)nc2N)cc(OC)c1OC [Trimethoprim, reference compound]															MIC (S cerevisiae): > 64 µg/mL; MIC (M. catarrhalis): 32 µg/mL (≈ 110 µM); MIC (P aeruginosa): > 64 µg/mL; MIC (S aureus): 2 µg/mL (≈ 6.89 µM); MIC (S pneumoniae): 8 µg/mL (≈ 27.6 µM); MIC (H influenzae): < 0.12 µg/mL; MIC (E coli): 0.25 µg/mL (≈ 0.861 µM); MIC (E faecalis): < 0.12 µg/mL; MIC (E coli (ImpA); read-out: MIC E coli (ImpA) MIC9): < 0.12 µg/mL
